What was measured:
Format in all cases: in vivo
Setaria faberi (SETFA) [1] = assay: Pre-emergence herbicidal glasshouse test (Table B1); conditions: evaluated after 13 days
Protocol: (§1) Seeds of a variety of test species are sown in standard soil in pots (Lolium perenne (LOLPE), Amaranthus retoflexus (AMARE), Abutilon theophrasti (ABUTH), Setaria faberi (SETFA), Echinochloa crus-galh (ECHCG), Ipomoea hederacea (IPOHE)). After cultivation for one day (pre-emergence) or after 8 days cultivation (post-emergence) under controlled conditions in a glasshouse (at 24/16° C., day/night; 14 hours light; 65% humidity), the plants are sprayed with an aqueous spray solution derived from the formulation of the technical active ingredient in acetone/water (50:50) solution containing 0.5% Tween 20 (polyoxyethelyene sorbitan monolaurate, CAS RN 9005-64-5). Compounds are applied at 500 g/h unless otherwise indicated. The test plants are then grown in a glasshouse under controlled conditions in a glasshouse (at 24/16° C., day/night; 14 hours light; 65% humidity) and watered twice daily. After 13 days for pre and post-emergence, the test is evaluated for the percentage damage caused to the plant. The biological activities are shown in the following table on a five-point scale (5=80-100%; 4=60-79%; 3=40-59%; 2=20-39%; 1=0-19%).

[2] = system: Amaranthus retoflexus (AMARE); assay: as above; conditions: evaluated after 13 days
Protocol: as §1

[3] = system: Ipomoea hederacea (IPOHE); assay: as above; conditions: evaluated after 13 days
Protocol: as §1

[4] = system: Echinochloa crus-galh (ECHCG); assay: as above; conditions: evaluated after 13 days
Protocol: as §1

[5] = system: Abutilon theophrasti (ABUTH); assay: as above; conditions: evaluated after 13 days
Protocol: as §1

Setaria faberi (SETFA) [6] = assay: Post-emergence herbicidal glasshouse test (Table B1); conditions: evaluated after 13 days
Protocol: as §1

[7] = system: Amaranthus retoflexus (AMARE); assay: as above; conditions: evaluated after 13 days
Protocol: as §1

[8] = system: Ipomoea hederacea (IPOHE); assay: as above; conditions: evaluated after 13 days
Protocol: as §1

[9] = system: Echinochloa crus-galh (ECHCG); assay: as above; conditions: applied at 125 g/ha, evaluated after 13 days
Protocol: as §1

Row | Compound | PRE Application SETFA, percentage damage on five-point scale (Setaria faberi (SETFA) [1]; applied at 125 g/ha) | PRE Application AMARE, percentage damage on five-point scale ([2]; applied at 125 g/ha) | PRE Application IPOHE, percentage damage on five-point scale ([3]; applied at 125 g/ha) | PRE Application ECHCG, percentage damage on five-point scale ([4]; applied at 125 g/ha) | PRE Application ABUTH, percentage damage on five-point scale ([5]; applied at 125 g/ha) | POST Application SETFA, percentage damage on five-point scale (Setaria faberi (SETFA) [6]; applied at 125 g/ha) | POST Application AMARE, percentage damage on five-point scale ([7]; applied at 125 g/ha) | POST Application IPOHE, percentage damage on five-point scale ([8]; applied at 125 g/ha) | POST Application ECHCG, percentage damage on five-point scale [9] | PRE Application SETFA, percentage damage on five-point scale (Setaria faberi (SETFA) [1]; applied at 500 g/h) | PRE Application AMARE, percentage damage on five-point scale ([2]; applied at 500 g/h) | PRE Application IPOHE, percentage damage on five-point scale ([3]; applied) | PRE Application ECHCG, percentage damage on five-point scale ([4]; applied at 500 g/h) | PRE Application ABUTH, percentage damage on five-point scale ([5]; applied at 500 g/h) | POST Application SETFA, percentage damage on five-point scale (Setaria faberi (SETFA) [6]; applied at 500 g/h) | POST Application AMARE, percentage damage on five-point scale ([7]; applied at 500 g/h) | POST Application IPOHE, percentage damage on five-point scale ([8]; applied at 500 g/h)
1 | CCC(=O)N(CC)c1c(OC(F)F)ccc(C(=O)Nc2nnnn2CC)c1Cl [Compound 1.095] | 4 (4=60-79%) | 5 (5=80-100%) | 4 (4=60-79%) | 5 (5=80-100%) | 5 (5=80-100%) | 5 (5=80-100%) | 5 (5=80-100%) | 4 (4=60-79%) | 5 (5=80-100%) |  |  |  |  |  |  |  | 
2 | CCC(=O)Nc1c(OC(F)(F)F)ccc(C(=O)Nc2nnnn2CC)c1C [Compound 1.079] | 4 (4=60-79%) | 5 (5=80-100%) | 4 (4=60-79%) | 5 (5=80-100%) | 5 (5=80-100%) | 4 (4=60-79%) | 4 (4=60-79%) | 4 (4=60-79%) | 5 (5=80-100%) |  |  |  |  |  |  |  | 
3 | CCOCC(=O)Nc1c(OC(F)(F)F)ccc(C(=O)Nc2nnnn2C)c1Cl [Compound 1.066] | 4 (4=60-79%) | 5 (5=80-100%) | 5 (5=80-100%) | 5 (5=80-100%) | 5 (5=80-100%) | 4 (4=60-79%) | 4 (4=60-79%) | 4 (4=60-79%) |  |  |  |  |  |  |  |  | 
4 | CCC(=O)Nc1c(OC(F)(F)C(F)F)ccc(C(=O)Nc2nnnn2C)c1Cl [Compound 1.109] |  |  |  |  |  |  |  |  |  | 4 (4=60-79%) | 5 (5=80-100%) | 5 (5=80-100%) | 4 (4=60-79%) | 5 (5=80-100%) | 5 (5=80-100%) | 5 (5=80-100%) | 5 (5=80-100%)
5 | CCn1nnnc1NC(=O)c1ccc(OC(F)F)c(NC(=O)c2cc(OC)ccn2)c1Cl [Compound 1.080] | 1 (1=0-19%) | 4 (4=60-79%) | 2 (2=20-39%) | 1 (1=0-19%) | 1 (1=0-19%) | 4 (4=60-79%) | 4 (4=60-79%) | 4 (4=60-79%) |  |  |  |  |  |  |  |  | 
6 | Cn1nnnc1NC(=O)c1ccc(OC(F)F)c(NC(=O)c2cc(Cl)sc2Cl)c1Cl [Compound 1.041] | 2 (2=20-39%) | 2 (2=20-39%) | 2 (2=20-39%) | 3 (3=40-59%) | 5 (5=80-100%) | 3 (3=40-59%) | 3 (3=40-59%) | 3 (3=40-59%) |  |  |  |  |  |  |  |  | 
7 | CC(C)OCC(=O)Nc1c(OC(F)(F)F)ccc(C(=O)Nc2nnnn2C)c1Cl [Compound 1.064] | 4 (4=60-79%) | 5 (5=80-100%) | 4 (4=60-79%) | 3 (3=40-59%) | 5 (5=80-100%) | 4 (4=60-79%) | 4 (4=60-79%) | 4 (4=60-79%) |  |  |  |  |  |  |  |  | 
8 | Cn1nnnc1NC(=O)c1ccc(OC(F)(F)F)c(NC(=O)C(C)(F)F)c1Cl [Compound 1.061] | 3 (3=40-59%) | 5 (5=80-100%) | 3 (3=40-59%) | 3 (3=40-59%) |  | 5 (5=80-100%) | 5 (5=80-100%) | 4 (4=60-79%) | 4 (4=60-79%) |  |  |  |  |  |  |  | 
9 | Cn1nnnc1NC(=O)c1ccc(OC(F)F)c(NC(=O)c2ncccc2Cl)c1Cl [Compound 1.092] | 5 (5=80-100%) | 5 (5=80-100%) | 3 (3=40-59%) |  | 5 (5=80-100%) | 4 (4=60-79%) | 3 (3=40-59%) | 4 (4=60-79%) |  |  |  |  |  |  |  |  | 
10 | CCCOCC(=O)Nc1c(OC(F)(F)F)ccc(C(=O)Nc2nnnn2C)c1Cl [Compound 1.062] | 3 (3=40-59%) | 5 (5=80-100%) | 4 (4=60-79%) | 2 (2=20-39%) |  | 5 (5=80-100%) | 5 (5=80-100%) | 4 (4=60-79%) | 4 (4=60-79%) |  |  |  |  |  |  |  | 
11 | CCn1nnnc1NC(=O)c1ccc(OC(F)(F)F)c(NC(=O)CC(F)(F)F)c1Cl [Compound 1.068] | 5 (5=80-100%) | 5 (5=80-100%) | 3 (3=40-59%) | 5 (5=80-100%) | 5 (5=80-100%) | 5 (5=80-100%) | 4 (4=60-79%) | 4 (4=60-79%) |  |  |  |  |  |  |  |  | 
12 | COc1ccccc1C(=O)Nc1c(OC(F)(F)F)ccc(C(=O)Nc2nnnn2C)c1Cl [Compound 1.056] | 3 (3=40-59%) | 3 (3=40-59%) |  | 1 (1=0-19%) | 5 (5=80-100%) | 4 (4=60-79%) | 4 (4=60-79%) | 4 (4=60-79%) | 4 (4=60-79%) |  |  |  |  |  |  |  | 
13 | Cc1nc(C(=O)Nc2c(OC(F)F)ccc(C(=O)Nc3nnnn3C)c2Cl)cs1 [Compound 1.038] | 4 (4=60-79%) | 5 (5=80-100%) | 5 (5=80-100%) | 5 (5=80-100%) | 5 (5=80-100%) | 4 (4=60-79%) | 4 (4=60-79%) | 4 (4=60-79%) |  |  |  |  |  |  |  |  | 
